Measured values taken from PMC6943736, “Bio-Guided Isolation of Prospective Bioactive Constituents from Roots of Clausena indica (Dalzell) Oliv” (Molecules, 2019).

Target: tyrosinase
Assay: enzyme assay with L-tyrosine substrate, […] nm
Assay type: biochemical

## COc1ccc2c(c1)[nH]c1cc(OC)c(C(=O)O)cc12 [L3, Clausine K]
  Tyrosinase Inhibition IC50: 179.5 µg/mL
